From PMC9917184, “Synthesis and Biological Evaluation of Potential Oncoimmunomodulator Agents” (International Journal of Molecular Sciences, 2023)
Like-named read-outs stand apart in the source and are kept apart here.

Legend:
[1] = test system: membrane VEGFR-2; assay: Membrane VEGFR-2 relative quantification by flow cytometry in cancer cells co-cultured with Jurkat T cells; assay type: cell-based, human; conditions: 100 μM, 24 h, relative to non-treated co-cultures
Method: (§1) We determined by flow cytometry the effect of these compounds on the expression of membrane PD-L1 in cancer cells when they were co-cultured with immune cells. Thus, interferon γ-stimulated cancer cells were treated for 24 h with the compounds at 100 μM in presence of Jurkat T cells. Then, cells were fixed and treated with anti-PD-L1 conjugated to AlexaFluor®647. We took advantage of the versatility of flow cytometry to simultaneously measure the expression of membrane VEGFR-2 by using anti-VEGFR-2 conjugated to fluorescein.
(§2) To study the effect of the compounds on every biological target in co-cultured cancer cell lines, the compounds were incubated for 24h as described before.
(§3) To detect membrane PD-L1 and VEGFR-2, after the cell treatments, they were collected, fixed with 4% in PBS paraformaldehyde, and stained with FITC Mouse monoclonal Anti-Human VEGFR-2 (ab184903) and Alexa Fluor® 647 Rabbit monoclonal Anti-PD-L1 (ab215251).

[2] = test system: Jurkat T cells; assay: Jurkat T cell viability in co-culture with cancer cells (flow cytometry count); assay type: cell-based; conditions: Homo sapiens, 24 h, read-out: percentage of living Jurkat cells relative to non-treated co-cultures
Method: (§4) The effect of the synthesized compounds on tumor cell proliferation in the presence of PD-1-expressing Jurkat T cells was also studied. This assay was carried out, as in the previous experiments, in the HT29, MCF7, and A549 cell lines (see Table 4). Interferon γ-stimulated cancer cells were treated for 24 h with the compounds at 100 μM in presence of Jurkat T cells. Then, cells were counted using flow cytometry. The percentage of living cells relative to non-treated co-cultures (control) was established for both cancer and immune cells in every co-culture.
(§5) To study the effect of the compounds on the cell viability in co-culture with Jurkat T cells or THP-1 cells, 10^5 or 2 × 10^5 of the corresponding cancer cells line per well were seeded and incubated for 24 h, then the medium was changed by one cell culture medium supplemented with IFN-γ (10 ng/mL; human, Invitrogen®) and containing 5 × 10^5 or 10^5 Jurkat T cells or THP-1, respectively, per well and 100 µM of the corresponding compound or DMSO for the […] control. After 24 h/48 h of incubation, supernatants were collected to determine Jurkat T or THP-1 living cells, and on the other hand, corresponding cancer cells were collected with trypsin. Both types of suspension cells were fixed with 4% in PBS paraformaldehyde and counted by flow cytometry.

[3] = test system: c-Myc; assay: Total c-Myc relative quantification by flow cytometry in cancer cell lines; assay type: cell-based, human; conditions: 24 h
Method: (§6) The effect of these triazole derivates on c-Myc and PD-L1 was measured in three different cancer cell lines (HT-29, MCF-7, A-549) by flow cytometry. Thus, cells were incubated for 24 h with the corresponding compound at a concentration of 100 μM. Dimethyl sulfoxide (DMSO)-treated cells were used as the negative control, and a PD-L1 inhibitor, BMS-8 [29, 31], was used as a reference control. After permeabilization and fixation, cells were treated with anti-PD-L1 conjugated to AlexaFluor®647 and anti-c-Myc conjugated to fluorescein to determine the amount of both targets related to the negative control. Table 1 show the results in terms of the percentage of the detected target in relation to the negative control. This assay was carried out on cancer cell lines HT-29, MCF-7, and A-549.
(§7) To study the effect of the compounds on every biological target in cancer cell lines, the compounds were used at a 100 µM dose.
(§8) For the assay, 10^5 cells per well were incubated for 24 h with the corresponding dose of the tested compound in a total volume of 500 μL of their growth media.
(§9) To detect total PD-L1 and c-Myc, after the cell treatments, they were collected and fixed with 4% in PBS paraformaldehyde. After fixation, a treatment with 0,5% in PBS Triton™ X-100 was performed, and finally, cells were stained with FITC Mouse monoclonal Anti-c-Myc (ab223913) and Alexa Fluor® 647 Rabbit monoclonal Anti-PD-L1 (ab215251).

[4] = test system: A-549; assay: A-549 cell viability in co-culture with Jurkat T cells (flow cytometry count); assay type: cell-based, human; conditions: 24 h; for viability at 100 µM: Homo sapiens, A549, A-549/Jurkat T co-culture, IFN-γ stimulated, read-out: percentage of living A-549 cells relative to non-treated co-cultures
Method: as §4, §5

[5] = molecular target: PD-L1 (Homo sapiens, UniProt Q9NZQ7); assay: Total PD-L1 relative quantification by flow cytometry in cancer cell lines; assay type: cell-based; parameters: Alexa Fluor® 647 Rabbit monoclonal Anti-PD-L1 (ab215251); endogenous in cells; host or cells: HT-29; conditions: 24 h, total PD-L1 relative to negative control (DMSO)
Method: as §6, §7, §8, §9

[6] = test system: MCF-7; assay: MCF-7 cell viability in co-culture with Jurkat T cells (flow cytometry count); assay type: cell-based, human; conditions: 24 h; for viability at 100 µM: Homo sapiens, MCF7, MCF-7/Jurkat T co-culture, IFN-γ stimulated, read-out: percentage of living MCF-7 cells relative to non-treated co-cultures; for inhibition rate of MCF-7 cell viability: co-cultured with Jurkat T cells, 100 μM
Method: as §4, §5

[7] = molecular target: T1, membrane PD-L1 (Homo sapiens, UniProt Q9NZQ7); assay: Membrane PD-L1 relative quantification by flow cytometry in cancer cells co-cultured with Jurkat T cells; assay type: cell-based; conditions: Jurkat, 24 h; for remaining activity at 100 µM: relative to non-treated co-cultures, read-out: % PDL1 (membrane); for inhibition at 100 µM: HT-29 co-cultured with Jurkat T cells, read-out: membrane PD-L1 inhibition rate
T1 construct: Alexa Fluor® 647 Rabbit monoclonal Anti-PD-L1 (ab215251); endogenous in cells; host or cells: HT-29, MCF-7, A-549 (A17: MCF-7 only; A14: IFN-gamma-stimulated cancer cells co-cultured with Jurkat T cells)
Method: as §1, §2, §3

[8] = test system: HT-29; assay: HT-29 cell viability in co-culture with Jurkat T cells (flow cytometry count); assay type: cell-based, human; conditions: Homo sapiens, HT-29/Jurkat T co-culture, IFN-γ stimulated, 24 h, read-out: percentage of living HT-29 cells relative to non-treated co-cultures
Method: as §4, §5

[9] = A549 co-cultured with Jurkat T cells
[10] = HT29 co-cultured with Jurkat T cells
[11] = MCF7 co-cultured with Jurkat T cells
[12] = A-549, 100 µM, relative to negative control (DMSO)
[13] = HT-29, 100 µM, detected target relative to negative control (DMSO)
[14] = MCF-7, 100 µM, relative to negative control (DMSO)

Chain of PD-L1 (Q9NZQ7 19-290): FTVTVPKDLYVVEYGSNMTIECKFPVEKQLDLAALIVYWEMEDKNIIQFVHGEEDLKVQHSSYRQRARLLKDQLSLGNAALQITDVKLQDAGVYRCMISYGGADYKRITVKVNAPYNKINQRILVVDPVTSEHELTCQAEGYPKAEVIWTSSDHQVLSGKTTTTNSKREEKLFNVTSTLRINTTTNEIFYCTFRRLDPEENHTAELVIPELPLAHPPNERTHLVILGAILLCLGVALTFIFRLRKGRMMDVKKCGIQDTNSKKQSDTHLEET
T1 sequence (Q9NZQ7 19-290): as above

remaining activity at 100 µM ([5]; A549, A-549, 100 µM) [%] | remaining activity at 100 µM ([5]; HT-29, 100 µM) [%] | remaining activity at 100 µM ([5]; MCF7, MCF-7, 100 µM) [%] | remaining activity at 100 µM [7, 9] [%] | remaining activity at 100 µM [7, 10] [%] | remaining activity at 100 µM [7, 11] [%] | inhibition at 100 µM [7] [%] | Structure (SMILES) | %VEGFR2 (membrane) [1, 9] [%] | %VEGFR2 (membrane) [1, 10] [%] | %VEGFR2 (membrane) [1, 11] [%] | viability at 100 µM ([2]; A-549/Jurkat T co-culture) [%] | viability at 100 µM ([2]; HT-29/Jurkat T co-culture) [%] | viability at 100 µM ([2]; MCF-7/Jurkat T co-culture) [%] | % c-Myc [3, 12] [%] | % c-Myc [3, 13] [%] | % c-Myc [3, 14] [%] | viability at 100 µM [4] [%] | viability at 100 µM [6] [%] | inhibition rate of MCF-7 cell viability [6] | viability at 100 µM [8] [%] | other results
120 ± 5 | 102 ± 1 | 87 ± 6 | 83 ± 6 | 57 ± 12 | 33 ± 4 | 40 to 50 | COc1ccc(C(OCCc2ccc(CCn3cc(-c4ccccc4OC)nn3)cc2)(c2ccccc2)c2ccc(OC)cc2)cc1 [Compound 13, 1-(4-(2-(bis(4-methoxyphenyl)(phenyl)methoxy)ethyl)phenethyl)-4-(2-methoxyphenyl)-1H-1,2,3-triazole] | 80 ± 8 | 89 ± 2 | 120 ± 8 | 90 ± 2 | 110 ± 9 | 79 ± 5 | 51 ± 2 | 68 ± 3 | 77 ± 5 | 103 ± 4 | 43 ± 1 | around 60% | 153 ± 15 | c-Myc inhibition rate ([3]; A-549, 100 μM): 50%
54 ± 7 | 138 ± 2 | 71 | 85 ± 3 | 61 ± 3 | 80 ± 5 | 40 to 50 | COc1ccccc1-c1cn(CCc2ccc(CCO)cc2)nn1 [Compound 14, 2-(4-(2-(4-(2-methoxyphenyl)-1H-1,2,3-triazol-1-yl)ethyl)phenyl)ethan-1-ol] | 106 ± 1 | 97 ± 6 | 91 ± 6 | 109 ± 20 | 106 ± 9 | 127 ± 6 | 85 ± 10 | 67 ± 4 | 71 ± 5 | 78 ± 9 | 47 ± 1 | around 60% | 67 ± 10 | inhibition rate of A-549 cell viability ([4]; co-cultured with Jurkat T cells, 100 μM): around 30%
